Calls of active or inactive are those of the source. How the calls were made is not given here.
Molecular target: Ribonuclease HI (Escherichia coli (strain K12)) (UniProt P0A7Y4)
Assay: inhibition of bacterial ribonuclease H activity – biochemical, FRET RNA/DNA duplex cleavage, dose response (AID 365)
Details: E. coli RNase H, FRET RNA/DNA cleavage fluorescence

Ribonuclease HI (Escherichia coli (strain K12)), sequence (P0A7Y4 whole entry, looked up): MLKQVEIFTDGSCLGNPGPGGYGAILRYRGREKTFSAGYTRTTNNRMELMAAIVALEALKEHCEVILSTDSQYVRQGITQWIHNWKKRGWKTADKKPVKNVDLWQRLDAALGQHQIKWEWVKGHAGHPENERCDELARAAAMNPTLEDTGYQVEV

Q: Which IC50 does the source give for `CC(C)OC(=O)c1cc(O)c(O)c(O)c1` here?
A: > 100 µM (inactive)

Q: For `Cc1ccc(C)n1-c1ccc(SCC(=O)O)cc1`, which IC50 is on record?
A: > 100 µM (inactive)

Q: How did the IC50 turn out when `Cc1ccc(C=C2C(=O)NC(=S)N(c3ccccc3Cl)C2=O)o1` was run?
A: inactive

Q: For `Cc1ccc(C(=O)Nc2sc(C)c(C)c2C(N)=O)cc1`, which IC50 is on record?
A: 2.2 µM

Q: How did the IC50 turn out when `Cc1cc(-c2ccc(C=C3C(=O)NC(=S)NC3=O)o2)c([N+](=O)[O-])cc1C` was run?
A: 8.8 µM

Q: `O=c1c(O)cccc2cc(O)c(O)c(O)c12` was tested. Which IC50 did it give?
A: inactive

Q: `Cc1ccc(C)n1-c1ccc(Br)cc1C(=O)O` was tested. Which IC50 did it give?
A: inactive

Q: With `O=C1C(Cl)=C/C(=N\S(=O)(=O)c2ccccc2)C(Cl)=C1Cl` as the compound, how does the IC50 read?
A: inactive

Q: Which IC50 does the source give for `CCCCCCCCCCCCCCCC(=O)OCC1OC(n2ccc(N)nc2=O)C(O)C1O` (centres undefined) here?
A: 0.64 µM

Q: Which IC50 does the source give for `CC(C)c1ccc(O)c(O)c(=O)c1` (tested in a mixture with another compound) here?
A: inactive

Q: For `Cc1cc(Cl)ccc1OCC(=O)Nc1sc(C)c(C)c1C(N)=O`, which IC50 is on record?
A: 1.2 µM

Q: How did the IC50 turn out when `O=C1C(Cl)=C/C(=N\S(=O)(=O)c2ccc(Cl)cc2)C(Cl)=C1Cl` was run?
A: inactive

Q: For `CC(C)=CCC1=C(O)[C@@](O)(CC=C(C)C)C(=O)C(C(=O)CC(C)C)=C1O`, which IC50 is on record?
A: inactive

Q: For `Nc1cc(S(N)(=O)=O)ccc1SSc1ccc(S(N)(=O)=O)cc1N`, which IC50 is on record?
A: > 100 µM (inactive)

Q: For `COc1ccc(N2C(=O)/C(=C/c3ccc(I)o3)C(=O)NC2=S)cc1`, which IC50 is on record?
A: 3 µM

Q: `O=C(Nc1ccc(N2CCN(C(=O)c3ccccc3)CC2)cc1)c1ccc(-c2ccccc2)cc1` was tested. Which IC50 did it give?
A: 3.8 µM

Q: With `COc1c(OC)c(O)c2c(=O)cc(-c3ccc(O)c(O)c3)oc2c1OC` as the compound, how does the IC50 read?
A: inactive

Q: How did the IC50 turn out when `COc1ccccc1N=C(NOCc1ccc(Cl)cc1Cl)c1nonc1N` was run?
A: inactive

Q: `Cc1cc(O)c2c(c1O)C(=O)c1cccc(O)c1C2=O` was tested. Which IC50 did it give?
A: > 100 µM (inactive)

Q: `CC1Oc2cc3c(-c4c(O)cc(O)c5c(O)c6c(cc45)OC(C)C(C)C6=O)c(O)cc(O)c3c(O)c2C(=O)C1C` (centres undefined) was tested. Which IC50 did it give?
A: inactive

Q: How did the IC50 turn out when `C[C@]12CC[C@H]3[C@@H](CCC4=CC(=O)CC[C@@]43C)[C@@H]1CC[C@@H]2C(=O)COS(=O)(=O)c1ccc(Br)cc1` was run?
A: inactive

Q: How did the IC50 turn out when `C[C@@H]1[C@H](O)c2c(c3c(c4c(-c5ccccc5)cc(=O)oc24)OC(C)(C)C=C3)O[C@@H]1C` was run?
A: 8 µM

Q: How did the IC50 turn out when `C[N+](C)=c1ccc2nc3c(cc(Nc4ccccc4)c4ccccc43)oc-2c1` was run?
A: 2.8 µM

Q: With `C=CC1=C(C)C2=NC1=CC1=NC(=CC3=C(C)C4=C(O)C(C(=O)OC)C(=C5NC(=C2)C(C)C5CCC(=O)OC/C=C(\C)CCCC(C)CCCC(C)CCCC(C)C)C4=N3)C(CC)=C1C` (centres undefined) as the compound, how does the IC50 read?
A: > 100 µM (inactive)

Q: With `C=CCn1c(N)c(-c2nc3ccccc3[nH]2)sc1=S` as the compound, how does the IC50 read?
A: inactive

Q: `O=C1NC(=S)N(c2ccccc2F)C(=O)C1=Cc1ccco1` was tested. Which IC50 did it give?
A: 1.1 µM

Q: How did the IC50 turn out when `CC(C)=CCc1ccc(O)c(=O)cc1C(C)C` was run?
A: 100 µM

Q: How did the IC50 turn out when `O=C1C=CC(=O)c2c(O)cccc21` was run?
A: 4.9 µM

Q: How did the IC50 turn out when `COC(=O)c1cc2cc3cc4cc(CC(=O)O)c(C(=O)/C=C(\O)c5ccccc5O)c(OC)c4c(OC)c3c(O)c2c(=O)o1` was run?
A: inactive

Q: Which IC50 does the source give for `O=C(O)c1cc(-c2ccc(/C=C3/Sc4ccccc4C3=O)o2)ccc1O` here?
A: 1 µM

Q: `N#C/C(=C\Nc1ccc(S(=O)(=O)Nc2nccs2)cc1)c1nc(-c2ccc(Cl)cc2)cs1` was tested. Which IC50 did it give?
A: 1.2 µM

Q: With `S=C(Nc1ccc2c(c1)Cc1ccccc1-2)Nc1ccc2c(c1)Cc1ccccc1-2` as the compound, how does the IC50 read?
A: 4 µM

Q: Which IC50 does the source give for `Cc1ccc(-c2c(C#N)c(SCC(=O)c3ccc(O)c(O)c3)nc3c2CCCC3)o1` here?
A: 0.2 µM

Q: For `CCOc1ccc(NC(=O)c2c(NC(=O)c3ccco3)sc3c2CCCCC3)cc1`, which IC50 is on record?
A: inactive

Q: How did the IC50 turn out when `O=C1c2ccccc2C(=O)N1c1ccc(-c2nc3ccc(N4C(=O)c5ccccc5C4=O)cc3[nH]2)cc1` was run?
A: 5 µM

Q: For `C[C@]12Cc3cnc(-c4ccccc4)nc3C[C@@H]1CC[C@@H]1[C@@H]2CC[C@@]2(C)[C@H]1CC[C@]2(C)O`, which IC50 is on record?
A: inactive

Q: For `O=S(=O)(Nc1cccc(C(F)(F)F)c1)c1ccc2ccccc2c1`, which IC50 is on record?
A: inactive

Q: With `CCOc1ccc(N2C(=O)/C(=C/c3ccc(I)o3)C(=O)NC2=S)cc1` as the compound, how does the IC50 read?
A: 2.4 µM

Q: How did the IC50 turn out when `O=C(N/N=C/c1ccccc1Cl)c1cc(O)c(O)c(O)c1` was run?
A: inactive

Q: `COc1cccc(-c2nc3cc(NC(=O)/C=C\c4ccccc4)ccc3o2)c1` was tested. Which IC50 did it give?
A: 3.7 µM

Q: Which IC50 does the source give for `Cc1sc(NC(=O)c2ccco2)c(C(N)=O)c1C` here?
A: inactive

Q: How did the IC50 turn out when `CCN1C(=O)/C(=C/c2ccoc2)C(=O)NC1=S` was run?
A: inactive

Q: For `COc1ccc(-c2nc3sc(-c4ccc(OC)cc4)nc3s2)cc1`, which IC50 is on record?
A: > 100 µM (inactive)

Q: With `Cc1ccc(S(=O)(=O)/N=C2\C=CC(=O)C=C2Cl)cc1` as the compound, how does the IC50 read?
A: inactive

Q: How did the IC50 turn out when `O=C(N/N=C/c1ccc(/C=N/NC(=O)c2ccc(O)c(O)c2)cc1)c1ccc(O)c(O)c1` was run?
A: 2.1 µM

Q: For `CCOc1cccc(N2C(=O)/C(=C/c3cn(CC(=O)OC)c4ccccc34)C(=O)NC2=S)c1`, which IC50 is on record?
A: 6.2 µM

Q: How did the IC50 turn out when `O=C1NC(=S)N(c2ccccc2F)C(=O)/C1=C/c1ccc(OCc2cccc(C(=O)O)c2)cc1` was run?
A: inactive

Q: `O=C1CC(=O)c2ccc3c4c(ccc1c24)C(=O)CC3=O` was tested. Which IC50 did it give?
A: 5.2 µM

Q: For `O=C1C=CC(=O)C(c2cc(Cl)ccc2Cl)=C1`, which IC50 is on record?
A: 9.2 µM

Reference: PubChem BioAssay AID365 (MTDP, 2006)
